Test system: B. plicatilis rotifer
Assay: Rotifer feeding rate toxicity test (fluosphere ingestion measured by laser fluorescence capillary device)
Type: in vivo, Brachionus plicatilis
Method: Water quality monitoring using rotifers was performed using a capillary tube with an internal diameter of 70 μm, a narrow band, 635 nm, 3 mW diode laser with a beam diameter of 40 μm was used. Interference filters were selected to transmit 12% at 670 nm (20 nm FWM), and 10^−6 at all other wavelengths.
1. A live B. plicatilis rotifer culture was obtained from Aqua-Farms, Fla. These rotifers were chosen because they are easy to raise, and the influence of toxic samples on their feeding, reproduction, and death rates have been studied extensively. The average concentration of rotifers in a 100 ml vial was counted using five 20 μl samples examined under a 50× microscope. […]
2. Two samples of 8 ml each were used to make the feeding rate measurements, a reference sample and test sample. These two vials were filled with the 500 rotifers/ml reference solution.
3. A […] diazanon solution was prepared using the rotifer medium solution, so as to maintain water quality parameters such as pH, O2, alkalinity, salinity, and temperature as constant as possible. A 20 μl amount of the diazanon solution was added to test sample.
4. After a 5 minute incubation, 20 μl of a 40×10^6 beads/ml solution of crimson fluospheres was added to both the reference and test samples. The time was noted as t=0.
5. Using two identical syringes connected with a luer union to a 100 μm piece of nylon tubing terminated with a 20 μm plankton filter, a 50 μl sample was extracted from the reference and test samples. In both cases, the organisms were filtered out from the bead solution.
6. The reference and test samples were successively passed through the test chamber using the syringe pump at a flow rate of 15 μl/min. […]
Each data file was retrieved, using TOXANA™, a time series data analysis software program. […] An assessment of the signal baseline mean and variance values (where no peak is detected) was made for each file. […]
The number of peaks with an intensity above Td were calculated for each file, as well as the average peak intensity, the average peak width, and the average peak area.

With `CCOP(=S)(OCC)Oc1cc(C)nc(C(C)C)n1` [diazanon] the “feeding rate reduced by a factor (vs control sample)” value (exposure to 1 ppm of diazanon, 500 rotifers/ml, FIG. 7B) was 30, the “ingestion rate per organism” value (test sample containing 1 ppm of diazanon, 500 rotifers/ml, 5 minute incubation, FIG. 7B) was 10^−3 beads/sec and the feeding rate (test sample containing 1 ppm of diazanon, 600 rotifers/ml, FIG. 7C) was “less than 0.05 beads/min”.
